System: oxazolone-induced atopic dermatitis in mice
Test: Oxazolone-induced atopic dermatitis in mice, samples applied to the ear, ear thickness (H&E histology)
Format: in vivo, mouse
Conditions: positive control group (Dexa), concentration not given; FIG. 2
Method: In a mouse, oxazolone was administered thereto to induce an oxazolone-induced atopic dermatitis. Then, the effect of the extract of the selected cultivar on atopic dermatitis was examined.
In detail, mice (male, 20 g, 8-week-old, Central Lab. Animal Inc.) was divided into a group of 6, and each group was named as a control group, a induction group (Vehicle), a positive control group (Dexa), a soybean SCEL-1 0.1% (w/v)-treated group, a soybean SCEL-1 0.3% (w/v)-treated group, a SCEL-1 1.0% (w/v)-treated group, and a general black soybean (available from Nonghyup of Gangneungkyo-1-dong) 1.0% (w/v)-treated group. Each sample was prepared in the same manner as in Section (1).
To induce atopic dermatitis in mice, 40 μl of 1% oxazolone per ear was applied once a day. After one week and starting from the eighth day, 40 μl of 1% oxazolone per ear was applied on alternate days for three weeks. In addition, starting from the eighth day, in addition to the oxazolone application, samples were also applied twice a day. Immediately after the experiment, a tissue of the ear was immobilized in 10% paraformaldehyde for 24 hours or more, and then, immersed in paraffin to form a block. The block was then fixed, and cut to a thickness of 10 μm by using a microtome that enables cutting to a constant thickness. […]

SMILES: C[C@@H]1C[C@H]2[C@@H]3CCC4=CC(=O)C=C[C@]4(C)[C@@]3(F)[C@@H](O)C[C@]2(C)[C@@]1(O)C(=O)CO [dexamethanosone]
- ear thickness of the mouse having oxazolone-induced atopic dermatitis: reduced to a thickness near the normal level
